# Experimental data published in paper PMC10133251, “An intrinsic purine metabolite AICAR blocks lung tumour growth by targeting oncoprotein mucin 1” (British Journal of Cancer, 2023).
# pEC50: −log10 of the molar value.
# Experiments:
# [1] = system: HCC827; assay: cells; design: species or system panel of lung tumour and stromal cell lines; CellTiter-Glo luminescent cell viability, 2D monolayer, 3000 cells per well in 96-well plate, vehicle-normalised; settings: Homo sapiens, HCC827; viability, 72 h
# Description: (§1) For 2D monolayer cell cultures, 3000 cells were plated into each well of a white 96-well plate in three replicates. After attachment, the cells were treated with AICAR, VX-509, osimertinib, and ABT-702 alone or in combinations for 72 h. The cell viability was measured at the treatment endpoint using the CellTiter-Glo® luminescent cell viability assay kit (Promega, Cat #G7570) according to the manufacturer’s instructions. The luminescent signal was recorded as relative light units (RLU). For 3D organoid cultures, the cell viability was measured using CellTiter-Glo 3D® Cell Viability Assay (Promega, Cat #G9681) according to the manufacturer’s protocol. The relative cell viability treated with the vehicle was normalised as 1. To explore the effects of AICAR treatment on lung cancer cell lines, we performed a cell viability assay using a panel of lung cancer cell lines based on the status of EGFR mutations (Table S1). […] To understand whether AICAR’s effects are dependent upon EGFR mutations, we tested drug response in another panel of lung cancer cells with wild-type EGFR, including H358, H23, H441, A549, and H69 (Fig. 1b). The average EC50 of tested EGFR wild-type cell lines (1.31 ± 0.18 mM) was higher than that of EGFR-mutant cell lines upon AICAR treatment (p < 0.05). To examine if there was any toxicity in stromal cells, we measured AICAR treatment response in a panel of primary lung stromal cell lines, including CCD-13Lu (fibroblasts), HULEC-5A (endothelial cells), and NR8383 (macrophages). […] 3000 cells (H3255, PC9-ER, HCC827, H1650, PC9, and H1975) were plated in a 96-well plate and treated with increasing doses of AICAR (0–10 mM). The cell viability was measured three days after treatment. Values were normalised to a vehicle-treated control group. N = 3 replicates. b Cell viability assay of AICAR in EGFR wild-type lung adenocarcinoma and small cell lung cancer cell lines. 3000 cells (A549, H23, H69, H358, and H441) were plated in a 96-well plate and treated with increasing doses of AICAR (0–10 mM). The cell viability was measured three days after treatment. Values were normalised to a vehicle-treated control group. N = 3 replicates. c Cell viability assay of AICAR in multiple types of primary lung stromal cells. 3000 cells (macrophages NR8383, endothelial cells HULEC-5A, and fibroblasts CCD-13Lu) were plated in a 96-well plate and treated with increasing doses of AICAR (0–10 mM). The cell viability was measured three days after treatment. Values were normalised to a vehicle-treated control group. N = 3 replicates. d Quantification of EC50 in EGFR mutant, wild-type, and non-malignant stromal lung cells. N = 3 replicates. e Flow cytometry analysis for time-dependent apoptosis in EGFR-mutant H1975 cells treated with AICAR. H1975 cells were plated in a 24-well plate and treated with AICAR (1 mM) for 0, 4, 7, and 16 h. After treatment, the apoptotic cells were quantified by flow cytometry analysis of cells stained with Annexin-V-APC and 7AAD. N = 4 replicates. f–h Flow cytometry analysis for apoptosis in multiple cell lines treated with AICAR. EGFR-mutant PC9 (f) and EGFR wild-type A549 (g) and H23 (h) cells were plated in a 24-well plate and treated with AICAR (1 mM) and vehicle control for 7 h. After treatment, the apoptotic cells were quantified by flow cytometry analysis of cells stained with Annexin-V-APC and 7AAD. N = 4 replicates. i, j Western blotting and relative quantification for expression levels of γ-H2AX (S139), H2AX, p-p53 (S33), p53, and […]
# [2] = system: A549; assay: cells; design: species or system panel of lung tumour and stromal cell lines; CellTiter-Glo luminescent cell viability, 2D monolayer, 3000 cells per well in 96-well plate, vehicle-normalised; settings: Homo sapiens, A549; viability, 72 h
# Description: as §1
# [3] = system: PC9-ER; assay: cells; design: species or system panel of lung tumour and stromal cell lines; CellTiter-Glo luminescent cell viability, 2D monolayer, 3000 cells per well in 96-well plate, vehicle-normalised; settings: Homo sapiens, PC-9/ER; viability, 72 h
# Description: as §1
# [4] = system: H1975; assay: cells; design: species or system panel of lung tumour and stromal cell lines; CellTiter-Glo luminescent cell viability, 2D monolayer, 3000 cells per well in 96-well plate, vehicle-normalised; settings: Homo sapiens, NCI-H1975; viability, 72 h
# Description: as §1
# [5] = system: H23; assay: cells; design: species or system panel of lung tumour and stromal cell lines; CellTiter-Glo luminescent cell viability, 2D monolayer, 3000 cells per well in 96-well plate, vehicle-normalised; settings: Homo sapiens, NCI-H23; viability, 72 h
# Description: as §1
# [6] = system: PC9; assay: cells; design: species or system panel of lung tumour and stromal cell lines; CellTiter-Glo luminescent cell viability, 2D monolayer, 3000 cells per well in 96-well plate, vehicle-normalised; settings: Homo sapiens, PC-9; viability, 72 h
# Description: as §1
# [7] = system: H1650; assay: cells; design: species or system panel of lung tumour and stromal cell lines; CellTiter-Glo luminescent cell viability, 2D monolayer, 3000 cells per well in 96-well plate, vehicle-normalised; settings: Homo sapiens, NCI-H1650; viability, 72 h
# Description: as §1
# [8] = system: H69; assay: cells; design: species or system panel of lung tumour and stromal cell lines; CellTiter-Glo luminescent cell viability, 2D monolayer, 3000 cells per well in 96-well plate, vehicle-normalised; settings: Homo sapiens, NCI-H69; viability, 72 h
# Description: as §1
# [9] = system: H441; assay: cells; design: species or system panel of lung tumour and stromal cell lines; CellTiter-Glo luminescent cell viability, 2D monolayer, 3000 cells per well in 96-well plate, vehicle-normalised; settings: Homo sapiens, NCI-H441; viability, 72 h
# Description: as §1
# [10] = system: H358; assay: cells; design: species or system panel of lung tumour and stromal cell lines; CellTiter-Glo luminescent cell viability, 2D monolayer, 3000 cells per well in 96-well plate, vehicle-normalised; settings: Homo sapiens, NCI-H358; viability, 72 h
# Description: as §1
# [11] = system: H3255; assay: cells; design: species or system panel of lung tumour and stromal cell lines; CellTiter-Glo luminescent cell viability, 2D monolayer, 3000 cells per well in 96-well plate, vehicle-normalised; settings: Homo sapiens, NCI-H3255; viability, 72 h
# Description: as §1
# [12] = in vitro; design: species or system panel of lung tumour and stromal cell lines; CellTiter-Glo luminescent cell viability, 2D monolayer, 3000 cells per well in 96-well plate, vehicle-normalised; settings: panel of lung tumour and stromal cell lines, EC50 (mM), viability, given as EC50
# Description: (§2) For 2D monolayer cell cultures, 3000 cells were plated into each well of a white 96-well plate in three replicates. After attachment, the cells were treated with AICAR, VX-509, osimertinib, and ABT-702 alone or in combinations for 72 h. The cell viability was measured at the treatment endpoint using the CellTiter-Glo® luminescent cell viability assay kit (Promega, Cat #G7570) according to the manufacturer’s instructions. The luminescent signal was recorded as relative light units (RLU). For 3D organoid cultures, the cell viability was measured using CellTiter-Glo 3D® Cell Viability Assay (Promega, Cat #G9681) according to the manufacturer’s protocol. The relative cell viability treated with the vehicle was normalised as 1. To explore the effects of AICAR treatment on lung cancer cell lines, we performed a cell viability assay using a panel of lung cancer cell lines based on the status of EGFR mutations (Table S1). […] To understand whether AICAR’s effects are dependent upon EGFR mutations, we tested drug response in another panel of lung cancer cells with wild-type EGFR, including H358, H23, H441, A549, and H69 (Fig. 1b). […] To examine if there was any toxicity in stromal cells, we measured AICAR treatment response in a panel of primary lung stromal cell lines, including CCD-13Lu (fibroblasts), HULEC-5A (endothelial cells), and NR8383 (macrophages). […] The cell viability was measured three days after treatment. […] The cell viability was measured three days after treatment. […] The cell viability was measured three days after treatment. […] N = 3 replicates. d Quantification of EC50 in EGFR mutant, wild-type, and non-malignant stromal lung cells. […] After treatment, the apoptotic cells were quantified by flow cytometry analysis of cells stained with Annexin-V-APC and 7AAD. […] After treatment, the apoptotic cells were quantified by flow cytometry analysis of cells stained with Annexin-V-APC and 7AAD. N = 4 replicates. i, j Western blotting and relative quantification for expression levels of γ-H2AX (S139), H2AX, p-p53 (S33), p53, and […]
# [13] = system: HULEC-5A; assay: in vitro; design: species or system panel of lung tumour and stromal cell lines; CellTiter-Glo luminescent cell viability, 2D monolayer, 3000 cells per well in 96-well plate, vehicle-normalised; settings: viability, 72 h; given as EC50; inhibitor
# Description: as §2
# [14] = system: NR8383; assay: in vitro; design: species or system panel of lung tumour and stromal cell lines; CellTiter-Glo luminescent cell viability, 2D monolayer, 3000 cells per well in 96-well plate, vehicle-normalised; settings: viability, 72 h; given as EC50; inhibitor
# Description: as §2
# [15] = target: T1, MUC1-CT (Homo sapiens, UniProt P15941); assay: cellular thermal shift assay, western blot; format: cell-based; settings: intact H1975 cells, 1 mM AICAR for 15 min, heated 3 min at 37-55 °C; stabilisation shown as curve only, no Tm; intracellular phosphorylation to ZMP possible
# T1 construct: endogenous C-terminal beta subunit (MUC1-CT) of the cleaved MUC1 precursor in intact H1975 cells; detected by western blot with anti-MUC1-CT
# T1 sequence (P15941 1098-1255 limits assumed): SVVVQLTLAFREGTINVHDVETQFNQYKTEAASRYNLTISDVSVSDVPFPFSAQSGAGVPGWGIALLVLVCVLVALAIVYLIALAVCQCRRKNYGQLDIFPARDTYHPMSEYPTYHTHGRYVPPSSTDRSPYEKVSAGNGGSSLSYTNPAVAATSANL
smiles,measurement,setting,value
NC(=O)c1ncn([C@@H]2O[C@H](CO)[C@@H](O)[C@H]2O)c1N [AICAR],pEC50,[1],3.06
same,pEC50,[2],2.80
same,pEC50,[3],3.39
same,pEC50,[4],3.53
same,pEC50,[5],2.79
same,pEC50,[6],3.52
same,pEC50,[7],3.38
same,pEC50,[8],2.84
same,pEC50,[9],3.19
same,pEC50,[10],2.89
same,pEC50,[11],3.49
same,CC50 at 72 h,[12],1.03 mM
same,CC50,[13],1450 µM
same,CC50,[14],1110 µM
same,thermal stability,[15],AICAR incubation in H1975 cells significantly increased protein stability in MUC1-CT than vehicle-treated groups
